Results taken from PMC9190012, “Heparin activation of protein Z-dependent protease inhibitor (ZPI) allosterically blocks protein Z activation through an extended heparin-binding site” (The Journal of Biological Chemistry, 2022).

Biological target: T1, NBD-ZPI (Homo sapiens, UniProt Q9UK55, C190A/C285S/K260C)
T1 construct: made in house; host or cells: Escherichia coli
T1 sequence (Q9UK55 22-444 C190A/K260C/C285S): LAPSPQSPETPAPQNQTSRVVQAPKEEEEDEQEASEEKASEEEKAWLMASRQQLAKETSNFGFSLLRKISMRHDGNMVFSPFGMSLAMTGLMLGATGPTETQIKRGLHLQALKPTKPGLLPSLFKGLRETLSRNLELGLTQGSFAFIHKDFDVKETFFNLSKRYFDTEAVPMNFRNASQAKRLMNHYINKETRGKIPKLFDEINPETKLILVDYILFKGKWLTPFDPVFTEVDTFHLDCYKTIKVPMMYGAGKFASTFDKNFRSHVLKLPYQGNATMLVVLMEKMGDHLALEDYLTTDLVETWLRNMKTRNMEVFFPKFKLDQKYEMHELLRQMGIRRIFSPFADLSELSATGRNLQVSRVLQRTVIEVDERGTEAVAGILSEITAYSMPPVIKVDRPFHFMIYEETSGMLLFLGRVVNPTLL
Test: Competitive binding titrations of NBD-ZPI–PZ complex with heparins (quenching of NBD fluorescence)
Details: competitive titration of NBD-ZPI–PZ complex (50 nM ZPI/62 nM PZ), 0.1 M NaCl buffer; read-out: ZPI–heparin KD,H
Experimental: Equilibrium binding of heparin to NBD-ZPI was measured by competitive binding titrations in which heparins of various lengths were titrated into NBD-ZPI (50 nM) complexed with a molar excess of PZ (62 nM) in a lower ionic strength buffer (0.1 M NaCl) and heparin binding followed by the quenching of NBD-ZPI–PZ complex fluorescence. Titrations were computer fit by the competitive binding equation, ΔFmax−ΔFobs/ΔFmax=Fobs−F∞/F0−F∞=[ZPI]0+[PZ]0+KD,PZ×(1+[H]0/KD,H)−([ZPI]0+[PZ]0+KD,PZ×(1+[H]0/KD,H))^2−4×[ZPI]0×[PZ]0/[ZPI]0+[PZ]0+KD,PZ−([ZPI]0+[PZ]0+KD,PZ)^2−4×[ZPI]0×[PZ]0
in which ΔFobs is the observed change in fluorescence of PZ complexed and uncomplexed NBD-ZPI before (Fo) and after heparin addition (Fobs), ΔFmax is the maximal fluorescence change upon reaching the end point fluorescence of NBD-ZPI after complete dissociation of PZ (F∞), [ZPI]o, [PZ]o, and [H]o are total concentrations of NBD-ZPI, PZ, and heparin, respectively, and KD,PZ and KD,H are dissociation constants for the NBD-ZPI–PZ and the NBD-ZPI–heparin interactions, respectively. […] In fitting data to the aforementioned equation, KD,PZ was fixed at the value determined by titration of NBD-ZPI with PZ in the absence of heparin, and KD,H was the fitted parameter.

- Kd: 32.4 ± 1.9 µM
Compound: CO[C@H]1O[C@H](COS(=O)(=O)O)[C@@H](O[C@@H]2O[C@@H](C(=O)O)[C@@H](O[C@H]3O[C@H](COS(=O)(=O)O)[C@@H](O[C@@H]4O[C@H](C(=O)O)[C@@H](O[C@H]5O[C@H](COS(=O)(=O)O)[C@@H](O)[C@H](O)[C@H]5NS(=O)(=O)O)[C@H](O)[C@H]4O)[C@H](OS(=O)(=O)O)[C@H]3NS(=O)(=O)O)[C@H](O)[C@H]2OS(=O)(=O)O)[C@H](O)[C@H]1NS(=O)(=O)O [H5, fondaparinux]
